Reference: ChEMBL document CHEMBL4483862, “Open-source discovery of chemical leads for next-generation chemoprotective antimalarials” (2018)

System: Plasmodium berghei
Assay: Luciferase/luciferin-expressing antifolate-resistant parasites were used to infect a culture of HepG2 cells that were pre-incubated with compounds. Infected hepatocytes emit light due to the luciferase reaction. Assay results are presented as the percent inhibition of light emission compared to control. […]
Type: functional
Conditions: sporozoite; for IC90: read-out: LUCIFERASE INFECTION ASSAY - IC90
[1] = read-out: LUCIFERASE INFECTION ASSAY - IC50

SMILES: CSc1ncc(C(=O)OCc2cc(F)cc3c2OCOC3)n1-c1ccc(F)cc1
- IC50 (PBLUC_HILL_SLOPE 2.14, PBLUC_R_SQUARED 0.0712, read-out: LUCIFERASE INFECTION ASSAY - IC50): 5.17 µM
- IC90: > 10 µM

SMILES: Cn1c(SCC(=O)Nc2cccc(C(=O)O)c2)nnc1-c1cnccn1
- IC50 [1]: > 8.91 µM
- IC90: > 8.91 µM

SMILES: CNC(=O)c1cnc(N2CCN(Cc3ccccc3C#N)C2=O)s1
- IC50 [1]: > 10 µM
- IC90: > 10 µM

SMILES: O=C(Nc1ccc(OC(F)(F)F)cc1)c1ccc(=O)n(Cc2ccc(Cl)cc2)c1
- IC50 (PBLUC_HILL_SLOPE 1.46, PBLUC_R_SQUARED 0.0131, read-out: LUCIFERASE INFECTION ASSAY - IC50): 7.46 µM
- IC90: > 7.81 µM

SMILES: FC(F)(F)c1nc2ccccc2nc1N/N=C/C=C/c1ccccc1
- IC50 [1]: > 9.64 µM
- IC90: > 9.64 µM

SMILES: O=C(c1oc2ccccc2c1CSc1ccc(Cl)cc1)N1CCCS/C1=N\c1ccccc1
- IC50 (FFLUC_HILL_SLOPE 3.49, FFLUC_R_SQUARED 0.279, read-out: LUCIFERASE INFECTION ASSAY - IC50): > 10 µM
- IC90: > 10 µM

SMILES: O=C(c1cnc(Nc2cccc(Cc3ccccc3)c2)[nH]1)c1ccccc1O
- IC50 (PBLUC_HILL_SLOPE 2.54, PBLUC_R_SQUARED 0.464, read-out: LUCIFERASE INFECTION ASSAY - IC50): 6.19 µM
- IC90: > 8.93 µM

SMILES: CCOC(=O)c1sc(N(NC(=O)c2ccc(Cl)cc2)C(=O)c2ccc(Cl)cc2)c2c1CC(C)(C)CC2=O
- IC50 [1]: 1.81 µM
- IC90: 2.02 µM

SMILES: OCc1ccc(-c2cn3c(-c4ccc5c(c4)OCO5)cnc3cn2)cc1
- IC50 (PBLUC_HILL_SLOPE 1.17, PBLUC_R_SQUARED 0.649, read-out: LUCIFERASE INFECTION ASSAY - IC50): 3.91 µM
- IC90: > 9.56 µM

SMILES: Cc1c(S(=O)(=O)c2ccc(Cl)cc2)csc1C(=O)N(c1ccccc1)[S+](C)[O-] (stereo not given)
- IC50 (PBLUC_HILL_SLOPE 18.3, PBLUC_R_SQUARED 0.735, read-out: LUCIFERASE INFECTION ASSAY - IC50): 2.41 µM
- IC90: 2.72 µM

SMILES: Cn1cc(-c2cn3c(-c4ccc(O)cc4)cnc3cn2)cn1
- IC50 (HEPG2TOX_HILL_SLOPE 9.44, HEPG2TOX_R_SQUARED 0.67, PBLUC_HILL_SLOPE 2.21, PBLUC_R_SQUARED 0.503, read-out: LUCIFERASE INFECTION ASSAY - IC50): 6.85 µM
- IC90: > 11.3 µM

SMILES: CC(C)N(C(=O)CSc1nnc(-c2cccc(S(=O)(=O)N3CCOCC3)c2)n1-c1ccc(F)cc1)c1ccccc1
- IC50 [1]: > 10 µM
- IC90: > 10 µM

SMILES: Oc1cccc2c(NC(S)=Nc3ccc(OC(F)F)cc3)cccc12
- IC50 (HEPG2TOX_HILL_SLOPE 12, HEPG2TOX_R_SQUARED 0.725, PBLUC_HILL_SLOPE 8.83, PBLUC_R_SQUARED 0.0853, read-out: LUCIFERASE INFECTION ASSAY - IC50): 4.11 µM
- IC90: 5.27 µM

SMILES: COc1ccc(-c2cnc3cnc(-c4cccs4)cn23)cn1
- IC50 (PBLUC_HILL_SLOPE 13.2, PBLUC_R_SQUARED 0.556, read-out: LUCIFERASE INFECTION ASSAY - IC50): 3.89 µM
- IC90: 4.6 µM

SMILES: COc1ccc(CCN2C(=O)CS/C2=N\c2ccc(C)cc2C)cc1OC
- IC50 (FFLUC_HILL_SLOPE 11.8, FFLUC_R_SQUARED 0.0733, HEPG2TOX_HILL_SLOPE 1.46, HEPG2TOX_R_SQUARED 0.879, PBLUC_HILL_SLOPE 2.1, PBLUC_R_SQUARED 0.331, read-out: LUCIFERASE INFECTION ASSAY - IC50): 6.08 µM
- IC90: > 8.58 µM

SMILES: Cn1nc(-c2ccc(Cl)cc2)cc1N
- IC50 (FFLUC_HILL_SLOPE 24.2, FFLUC_R_SQUARED 0.094, read-out: LUCIFERASE INFECTION ASSAY - IC50): > 15.9 µM
- IC90: > 15.9 µM

SMILES: S=C(NCc1ccc(Cl)c(Cl)c1)Nc1cccnc1
- IC50 [1]: > 10.6 µM
- IC90: > 10.6 µM

SMILES: Cc1cc2nc(Nc3cccc(Cl)c3)c3ccccc3n2n1
- IC50 (HEPG2TOX_HILL_SLOPE 10.5, HEPG2TOX_R_SQUARED 0.708, PBLUC_HILL_SLOPE 3.62, PBLUC_R_SQUARED 0.793, read-out: LUCIFERASE INFECTION ASSAY - IC50): 7.73 µM
- IC90: > 10 µM

SMILES: CN1/C(=C\C=N\NC(=O)c2cccnc2)C(C)(C)c2ccccc21
- IC50 (PBLUC_HILL_SLOPE 4.32, PBLUC_R_SQUARED 0.562, read-out: LUCIFERASE INFECTION ASSAY - IC50): 7.23 µM
- IC90: > 10 µM

SMILES: O=C1S/C(=C\c2ccccc2)C(=O)N1CCn1cnnn1
- IC50 [1]: > 10 µM
- IC90: > 10 µM

SMILES: O=C(NCCO)c1cccc(-c2ccc3ncc(-c4cccc(CO)c4)n3n2)c1
- IC50 (HEPG2TOX_HILL_SLOPE 1.86, HEPG2TOX_R_SQUARED 0.81, PBLUC_HILL_SLOPE 12.7, PBLUC_R_SQUARED 0.352, read-out: LUCIFERASE INFECTION ASSAY - IC50): 3.09 µM
- IC90: 3.67 µM

SMILES: Cc1[nH]c2ccc(C(=O)Nc3nc(CN4CCCC(C)C4)cs3)cc2c1C (stereo not given)
- IC50 [1]: > 10 µM
- IC90: > 10 µM

SMILES: Cc1nc(C2CC2)nc(SC(C)C)c1C#N
- IC50 (HEPG2TOX_HILL_SLOPE 17, HEPG2TOX_R_SQUARED 0.522, PBLUC_HILL_SLOPE 1.64, PBLUC_R_SQUARED 0.538, read-out: LUCIFERASE INFECTION ASSAY - IC50): 5.26 µM
- IC90: > 10 µM

SMILES: OC(c1cn2cc(-c3ccccc3)nc2s1)(C(F)(F)F)C(F)(F)F
- IC50 (PBLUC_HILL_SLOPE 1.37, PBLUC_R_SQUARED 0.781, read-out: LUCIFERASE INFECTION ASSAY - IC50): 0.348 µM
- IC90: 1.73 µM

SMILES: Cc1ccc(C(C)C)c(Oc2nnnn2-c2ccccc2)c1
- IC50 (HEPG2TOX_HILL_SLOPE 3.94, HEPG2TOX_R_SQUARED 0.78, PBLUC_HILL_SLOPE 282, PBLUC_R_SQUARED 0.16, read-out: LUCIFERASE INFECTION ASSAY - IC50): 4.34 µM
- IC90: 4.38 µM

SMILES: Cc1cc(C(=O)Cn2c(CO)nc3ccccc32)c(C)n1-c1ccccc1
- IC50 (HEPG2TOX_HILL_SLOPE 1.51, HEPG2TOX_R_SQUARED 0.587, PBLUC_HILL_SLOPE 1.38, 1.35, PBLUC_R_SQUARED 0.541, 0.883, read-out: LUCIFERASE INFECTION ASSAY - IC50): 3.87 µM
- IC90: > 10 µM

SMILES: CCOc1c(Br)cc(/C=C2/C(=O)N(C)c3ccccc32)cc1OC
- IC50 (HEPG2TOX_HILL_SLOPE 13, HEPG2TOX_R_SQUARED 0.388, read-out: LUCIFERASE INFECTION ASSAY - IC50): > 10 µM
- IC90: > 10 µM

SMILES: C=CCn1c(SCC(=O)Nc2sc(C)c(C)c2C(=O)OCC)nc2scc(-c3ccc(OC)cc3)c2c1=O
- IC50 (FFLUC_HILL_SLOPE 9.8, FFLUC_R_SQUARED 0.347, HEPG2TOX_HILL_SLOPE 0.0825, HEPG2TOX_R_SQUARED 0.0539, PBLUC_HILL_SLOPE 3.18, PBLUC_R_SQUARED 0.293, read-out: LUCIFERASE INFECTION ASSAY - IC50): 5.66 µM
- IC90: > 10 µM

SMILES: O=C(Nc1ccc(Cl)c(Cl)c1)Nc1ccnn1C1CCCCC1
- IC50 (PBLUC_HILL_SLOPE 0.873, PBLUC_R_SQUARED 0.34, read-out: LUCIFERASE INFECTION ASSAY - IC50): > 10 µM
- IC90: > 10 µM

SMILES: O=C(Nc1ccc(Oc2ccnc3cc(Cl)ccc23)cc1)c1ccco1
- IC50 (PBLUC_HILL_SLOPE 3.16, PBLUC_R_SQUARED 0.555, read-out: LUCIFERASE INFECTION ASSAY - IC50): 1.49 µM
- IC90: 2.99 µM

SMILES: CN(/N=C/c1cc(Cl)cc(Cl)c1O)c1ccc([N+](=O)[O-])cn1
- IC50 (FFLUC_HILL_SLOPE 1.05, FFLUC_R_SQUARED 0.5, read-out: LUCIFERASE INFECTION ASSAY - IC50): > 9.67 µM
- IC90: > 9.67 µM

SMILES: COc1ccc(CN(CC(=O)NCCc2ccc(F)cc2)C(C)Cc2cccs2)cc1 (stereo not given)
- IC50 [1]: > 10 µM
- IC90: > 10 µM

SMILES: Cc1ccc2nc(-c3ccc(N(C)C)cc3)[nH]c2c1
- IC50 (FFLUC_HILL_SLOPE 0.944, FFLUC_R_SQUARED 0.925, PBLUC_HILL_SLOPE 0.907, PBLUC_R_SQUARED 0.785, read-out: LUCIFERASE INFECTION ASSAY - IC50): 0.53 µM
- IC90: 5.96 µM

SMILES: O=C(NC1CC1)c1ccc(-c2cn3c(-c4ccc(C(=O)NC5CC5)cc4)cnc3cn2)cc1
- IC50 (HEPG2TOX_HILL_SLOPE 0.33, HEPG2TOX_R_SQUARED 0.326, PBLUC_HILL_SLOPE 6.32, PBLUC_R_SQUARED 0.0215, read-out: LUCIFERASE INFECTION ASSAY - IC50): > 7.54 µM
- IC90: > 7.54 µM

SMILES: CC1=C(C(=O)OCc2ccccc2)C(c2ccc(Cl)c([N+](=O)[O-])c2)n2nnnc2N1 (stereo not given)
- IC50 (HEPG2TOX_HILL_SLOPE 0.964, HEPG2TOX_R_SQUARED 0.562, read-out: LUCIFERASE INFECTION ASSAY - IC50): > 10 µM
- IC90: > 10 µM

SMILES: C(=N\Nc1ncnc2sc(-c3ccccc3)cc12)/c1sc(N2CCCCC2)nc1-c1cccs1
- IC50 (FFLUC_HILL_SLOPE 0.658, FFLUC_R_SQUARED 0.126, HEPG2TOX_HILL_SLOPE 2.14, HEPG2TOX_R_SQUARED 0.958, PBLUC_HILL_SLOPE 24.1, PBLUC_R_SQUARED 0.279, read-out: LUCIFERASE INFECTION ASSAY - IC50): 1.11 µM
- IC90: 1.21 µM

SMILES: O=C(CSc1nnc(-c2ccccc2)o1)Nc1ncc(Cl)cc1Cl
- IC50 (HEPG2TOX_HILL_SLOPE 0.667, HEPG2TOX_R_SQUARED 0.783, PBLUC_HILL_SLOPE 16.1, PBLUC_R_SQUARED 0.672, read-out: LUCIFERASE INFECTION ASSAY - IC50): 1.05 µM
- IC90: 1.2 µM

SMILES: O=C(C1CCCCC1)N1N=C2/C(=C/c3ccco3)CCCC2C1c1ccco1 (stereo not given)
- IC50 [1]: > 10 µM
- IC90: > 10 µM

SMILES: COc1cc(/C=C2\C(=O)c3ccccc3S(=O)(=O)N2C(C)C)ccc1O
- IC50 (FFLUC_HILL_SLOPE 10, FFLUC_R_SQUARED 0.0898, HEPG2TOX_HILL_SLOPE 4.33, HEPG2TOX_R_SQUARED 0.977, PBLUC_HILL_SLOPE 2.02, PBLUC_R_SQUARED 0.77, read-out: LUCIFERASE INFECTION ASSAY - IC50): 0.957 µM
- IC90: 2.85 µM

SMILES: NC(=O)c1c(NC(=O)NCc2ccncc2)sc2c1CCCC2
- IC50 [1]: > 9.99 µM
- IC90: > 9.99 µM
